Data set [1] can be described thus: in vivo. More on the design: species or system white mice. The following applies: mouse; for survival at 96 h: ip. As to the method:
^(a) Mortality determined at 96 hours, all drugs given
intraperitoneally dissolved in saline at 42° C.
receiving same mg dose or saline controls and all acetaminophen groups p
<0.005 using chi square test.

For data set [2], the system named is plasma glutamate-pyruvate transaminase (GPT). Briefly: Plasma glutamate-pyruvate transaminase (GPT) activity in mice. To be noted: for Effect on transaminase activity: 600 mg/kg acetaminophen, 900 mg/kg 3-hydroxyacetanilide; for Transaminase activity in plasma, Mean ± SD: saline 32 ± 18. The data set is classed as in vivo. The method, then:
(§1) The relative effects of 3-hydroxyacetanilide and acetaminophen were compared on plasma glutamate-pyruvate transaminase (GPT) activity. 600 mg/kg of acetaminophen were used in the test; whereas, a larger quantity, 900 mg/kg, of 3-hydroxyacetanilide was used. […] Activity was measured spectrophotometrically at room temperature using a Sigma® Enzyme Kit. The activity is expressed in micromoles per minute per […] of plasma. The blood for the test was collected in a small amount of heparin. Assays were performed within two hours after obtaining the blood. […] There appears to be a correlation between drug dose, amounts of necrosis seen histologically and elevation of transaminase levels.

The nature of data set [3]: Mouse writhing test with 1% acetic acid. The data set is classed as in vivo. To be noted: for Writhes per 5 Minute (SD): 30 minutes prior to test, control 23.2 ± 5.3. The method, then: To test the effectiveness of 3-hydroxyacetanilide as an analgesic when compared to acetaminophen, a mouse writhing test was used wherein 1% acetic acid is given intraperitoneally 5 minutes prior to counting abdominal writhes made by the animal. The dose of the 1% […] is 0.01 cc/gm of body weight. Prior to counting the writhes, acetaminophen and 3-hydroxyacetanilide were given subcutaneously 30 minutes prior to the test. The control was given normal saline. […] This example therefore illustrates that 3-hydroxyacetanilide is unexpectedly as good an analgesic in this test as acetaminophen and should therefore be used in dosages similar to the dosages known to be effective for actaminophen and since it has almost the same analgesic effect in mice as acetaminophen, it would be expected to have the same analgesic effect as acetaminophen in other mammals.

For data set [4] the following is noted: British Pat. No. 1,006,558; cited from earlier work.
Data set [5] has as its system liver. Nature of the data set: Gross appearance of livers of mice that died after injection. The following applies: white mice. As to the method: Doses of 400, 600 and 900 milligrams per kilogram of 3-hydroxyacetanilide, of acetaminophen and of normal saline control were administered to white mice.
The conditions of data set [6]: Roberts and Jollow; cited from earlier work.
The subject of data set [7] is liver glutathione. Briefly: Effect on liver glutathione levels in mice. The data set is classed as in vivo, mouse. To be noted: 600 mg/kg i.p.; for Depletion of mouse liver glutathione: two hours; for Liver glutathione level: two hours after injection, saline 8.2 ± 0.9. As to the method:
A number of mice were given doses of acetaminophen and 3-hydroxyacetanilideat levels of 600 mg/kg of body weight and a number of mice were given normal saline as a control. […] All values were determined at two hours after intraperitoneal drug injection.

In data set [8] the test system is liver. Briefly: Hepatic necrosis. To be noted: compared with acetaminophen. In kind it is in vivo, mice. As to the method: as §1
The subject of data set [9] is plasma glutamate-pyruvate transaminase (GPT). To be noted: mice, acetaminophen-induced hepatic injury; cited from earlier work.
The test system of data set [10] is liver. To be noted: acetaminophen-induced hepatic injury, mice; cited from earlier work.

On to `CC(=O)Nc1cccc(O)c1` [3-hydroxyacetanilide], for which, in data set [1], the “Mortality compared with a comparable dose of acetaminophen” value is on record as “considerably less mortality”. The survival at 96 h in data set [1] (400 mg/kg) stood at 96%; in [1] (600 mg/kg), 96%; in data set [1] (900 mg/kg), 91%. Further, the “Effect on transaminase activity” value in [2] was “much less effect”. The “Transaminase activity in plasma, Mean ± SD” value in data set [2] (900 mg/kg, n 17) is 23 ± 5 IU/ml Plasma. In addition, the “Elevation in plasma GPT activity” value in data set [2] (900 mg/kg, up to 48 hours after treatment) is reported as “No significant elevation”. Also, the entries for the “Writhes per 5 Minute (SD)” value in data set [3] (200 mg/kg s.c.) and in data set [3] (400 mg/kg s.c.) were 11.6 ± 8.1 and 1.3 ± 1.4, respectively. In data set [3] (s.c., 200 and 400 mg/kg), the “Analgesic effect compared with acetaminophen” value is “statistically insignificant differences”. Also, in data set [3] (s.c., 200 and 400 mg/kg), the “Reduction of the number of writhes per 5 minutes” value is “effectively reduced the number of writhes per 5 minutes”. In data set [4], the Anti-pyretic activity result is listed as “has anti-pyretic activity”. For the same compound, in data set [5], the “Gross appearance of liver in mice which died” value was “no significant gross abnormality of the liver”. In data set [6], the “Hepatotoxicity relative to acetaminophen” value is listed as “substantially less hepatotoxic than acetaminophen”. In addition, the “Depletion of mouse liver glutathione” value in data set [7] was “much less depletion”. This compound had a Liver glutathione level in data set [7] of 6.2 ± 1.2 mg/gram liver. In data set [8], the Hepatic necrosis entry is “did not cause a similar level of hepatic necrosis”.
As for `CC(=O)Nc1ccc(O)cc1` [Acetaminophen, 4-hydroxyacetanilide, reference compound], the survival at 96 h in data set [1] (400 mg/kg) was 40%; in data set [1] (600 mg/kg) it was 20%; in data set [1] (900 mg/kg), 20%. The “Effect on transaminase activity” value in [2] was “drastically affects the transaminase activity”. For the same compound, the “Transaminase activity in plasma, Mean ± SD” value in [2] (600 mg/kg, n 9) was determined as 1834 ± 771 IU/ml Plasma. Moreover, the results for the “Writhes per 5 Minute (SD)” value in data set [3] (200 mg/kg s.c.) and in data set [3] (400 mg/kg s.c.) were 10.0 ± 6.2 and 3.5 ± 4.0, respectively. In addition, the “Reduction of the number of writhes per 5 minutes” value in data set [3] (s.c., 200 and 400 mg/kg) is reported as “effectively reduced the number of writhes per 5 minutes”. In addition, the “Gross appearance of liver in mice which died” value in data set [5] is “large and grossly congested in appearance”. In addition, the “Time of maximum plasma transaminase levels after dose” value in data set [9] is given as “approximately 6 hours”. Moreover, the “Depletion of mouse liver glutathione” value in data set [7] is “rapid depletion”. Besides, the Liver glutathione level in data set [7] was determined as 2.4 ± 0.6 mg/gram liver. Moreover, in data set [10], the “Hepatic injury, histology” value is given as “centrilobular necrosis”.

The record behind these values is patent publication US4238508A, “Method for analgesia using 3-hydroxyacetanilide” (The Research Foundation of State University of New York, priority 1979, dated 1980).
